# Assay results reported in patent US20110144374A1, “OXIME ETHER DERIVATIVE AND FUNGICIDE FOR AGRICULTURE AND HORTICULTURE” (Nippon Soda Co., Ltd., priority 2008, published 2011).
row,SMILES,melting point
1,"COC(=O)NOc1cc(/C(C)=N/OCc2ccccc2C(F)(F)F)ccc1C [Compound 21-24, N-{2-methyl-5-[1-(2-trifluoromethylbenzyloxyimino)ethyl]phenoxy}methyl carbamate]",82 to 85 °C
2,"COC(=O)NOc1cc(/C(C)=N/OCc2ccccc2I)ccc1Cl [Compound 11-9, N-{2-chloro-5-[1-(2-iodobenzyloxyimino)ethyl]phenoxy}methyl carbamate]",121 to 122 °C
3,"COC(=O)NOc1cc(/C(C)=N/OCc2cccc(F)c2C(F)(F)F)ccc1Cl [Compound 1-13, N-(2-chloro-5-{1-[3-fluoro-2-(trifluoromethyl)benzyloxyimino]ethyl}phenoxy)methyl carbamate]",104 to 105 °C
